{"source": "patent US6034134A", "about": "“1-Amino-alkylcyclohexane NMDA receptor antagonists” (Merz + Co. GmbH & Co., priority 1998, dated 2000)", "key": {"[1]": {"details": "cited from earlier work; for side effects in humans: human, in vivo"}, "cortical neurones": {"test_system": "cortical neurones", "test": "Excitotoxicity: glutamate toxicity in cultured cortical neurones (MTT)", "format": "cell-based, rat", "details": "Rattus norvegicus, Cortical neurone", "experimental": "Cortical neurones were obtained from cerebral cortices of 17/18 day old fetal rats (Wistar), in general following the dissociation procedure described by. After short trypsinization and gentle trituration with fire-polished Pasteur pipettes, the cell suspension was washed by centrifugation. Cells were suspended in serum-free Neurobasal medium with B27 supplement (GIBCO) before plating onto poly-L-lysine (Sigma; 0.2 mg/ml, 20 h, 4° C.) and laminin (Sigma; 2 μg/ml, 1 h, 37° C.)-coated 96-well plates (Falcon, Primaria) at a density of 5×10^4 cells/well. Cortical neurones were maintained at 37° C. in humidified 10% CO2 /90% air. […] The medium was changed first after 4 days in vitro and then every 4 days by replacing 2/3 of the medium with astrocyte-conditioned medium. Cortical neurones between day 12 and 14 in culture were used for the experiments.\nNew-born rat astrocytes were isolated non-enzymatically according to the method of [24]. Briefly, both hemispheres were dissected from 2-day-old rats, passed through an 80 μm gauze, and triturated with Pasteur pipettes. Cell suspension was made in Dulbecco's modified essential medium (DMEM, Gibco) supplemented with 10% fetal calf serum (FCS, Hyclone), 2 mM glutamine (Gibco) and 50 μg/ml gentamycin and transferred into untreated, plastic culture flasks (Corning; […]). Two days after plating the flasks were shaken for 10 minutes on a rotary platform (150 U/min) to remove microglial cells. The cultures were grown to confluency within 14 days, and the culture medium was changed twice weekly. Thereafter, the glial monolayers were extensively washed with serum-free Neurobasal medium (Gibco) to remove the serum. Flasks were then shaken several times to remove oligodendrocytes and neurones. To obtain conditioned medium from primary astrocytes, the cultures were incubated with fresh Neurobasal medium supplemented with B27 andglutamine. Every 2-3 days the conditioned medium was collected and replaced by fresh medium up to 4 times.\nExposure to EAA was performed in serum-free Neurobasal medium containing 100 μM glutamate and the drug to be tested. After 20 h of incubation, the cytotoxic effect was morphologically examined under a phase contrast microscope and biochemically quantified by measuring cell viability with the MTT test (Promega). This calorimetric assay measures the reduction of a tetrazolium component (MTT) into an insoluble formazan product by the mitochondria of living cells. After incubation of the cortical neurones with the dye solution for approximately 1-4 hours, a solubilization solution was added to lyse the cells and solubilize the colored product (incubation overnight at 37° C., 10% CO2, 90% RH). These samples were then read using an Elisa plate reader (Thermomax, MWG Biotech) at a wavelength of 570 nm. The amount of color produced was directly proportional to the number of viable cells.\n(§1) IC50 s in patch clamp, excitotoxicity, and binding studies were calculated according to the four parameter logistic equation using the Grafit computer program (Erithacus Software, England). Ki value for binding studies were then determined according to Cheng and Prusoff. Binding values presented are means±SEM of 3-5 determinations (each performed in duplicate). […] Pearson product moment correlation analysis (Sigma Stat, Jandel Scientific) was used to compare in vitro potencies and in vivo anticonvulsant activity."}, "[2]": {"test": "Maximal electroshock (MES)-induced convulsions in mice", "format": "in vivo", "details": "for ED50: Mus musculus, ip, 0.5 h, read-out: MES ED50; for MES ED50: 30 min", "experimental": "(§2) NMR female mice (18-28 g) housed 5 per cage were used for the maximal electroshock (MES) and motor impairment tests. […] All compounds were dissolved in 0.9% saline.\n(§3) The MES test was performed together with tests for myorelaxant action (traction reflex) and motor coordination (rotarod). For the traction reflex test mice were placed with their forepaws on a horizontal rod and were required to place all 4 paws on the wire within 10 seconds. To test ataxia (motor coordination) mice were placed on rotarod (5 rpm) and were required to remain on the rod for 1 minute. […] These tests were followed by MES (100 Hz, 0.5 second shock duration, 50 mA shock intensity, 0.9 ms impulse duration, Ugo Basile) applied through corneal electrodes. The presence of tonic convulsions was scored (tonic extension of hind paws with minimum angle to the body of 90°). The aim was to obtain ED50 s for all parameters scored (anticonvulsive activity and motor side effects) with use of the Litchfield Wilcoxon test for quantal dose responses. Division of the ED50 for side effects (ataxia or myorelaxation) by the ED50 for antagonism of electroshock convulsions was used as a therapeutic index (TI). […]"}, "NMDA receptor [3]": {"test_system": "NMDA receptor", "test": "Patch clamp: NMDA-induced inward currents in cultured hippocampal neurones", "format": "cell-based, rat", "experimental": "Hippocampi were obtained from rat embryos (E20 to E21) and were then transferred to calcium and magnesium free Hank's buffered salt solution (Gibco) on ice. Cells were mechanically dissociated in 0.05% DNAase/0.3% ovomucoid (Sigma) following an 8 minute pre-incubation with 0.66% trypsin/0.1% DNAase (Sigma). The dissociated cells were then centrifuged at 18 ×g for 10 minutes, re-suspended in minimum essential medium (Gibco) and plated at a density of 150,000 cells cm^-2 onto poly-L-lysine (Sigma)-precoated plastic petri dishes (Falcon). The cells were nourished with NaHCO3 /HEPES-buffered minimum essential medium supplemented with 5% fetal calf serum and 5% horse serum (Gibco) and incubated at 37° C. with 5% CO2 at 95% humidity. […] Thereafter the medium was exchanged partially twice weekly.\nPatch clamp recordings were made from these neurones with polished glass electrodes (4-6 m.OMEGA.) in the whole cell mode at room temperature (20-22° C.) with the aid of an EPC-7 amplifier (List). Test substances were applied by switching channels of a custom-made fast superfusion system with a common outflow (10-20 ms exchange times). The contents of the intracellular solution were as follows (mM): CsCl (120), TEACl (20), EGTA (10), MgCl2 (1), CaCl2 -(0.2), glucose (10), ATP(2), cAMP (0.25); pH was adjusted to 7.3 with CsOH or HC1. The extracellular solutions had the following basic composition (mM): NaCl (140), KCl (3), CaCl2 (0.2), glucose (10), HEPES (10), sucrose (4.5), tetrodotoxin (TTX 3*10^-4). Glycine (1 μM) was present in all solutions: a concentration sufficient to cause around 80-85% activation of glycineB receptors. Only results from stable cells were accepted for inclusion in the final analysis, i.e., following recovery of responses to NMDA by at least 75% of their depression by the antagonists tested.\nas §1"}, "[4]": {"experimental": "All animals were kept with water and food ad libitum under a 12 hour light-dark cycle (light on at 6 a.m.) and at a controlled temperature (20±0.5° C.). All e experiments were performed between 10 a.m. and 5 p.m. Tested agents were injected 30 min. i.p. before the induction of convulsions if not stated otherwise (see below). All compounds were dissolved in 0.9% saline."}, "[5]": {"test": "Rotarod test (motor coordination, ataxia) in mice, therapeutic index versus MES", "format": "in vivo", "details": "mouse, in vivo, ip; ED50 for rotarod failure divided by ED50 for MES; read-out: TI Rot.", "experimental": "All compounds were dissolved in 0.9% saline.\nThe MES test was performed together with tests for myorelaxant action (traction reflex) and motor coordination (rotarod). For the traction reflex test mice were placed with their forepaws on a horizontal rod and were required to place all 4 paws on the wire within 10 seconds. To test ataxia (motor coordination) mice were placed on rotarod (5 rpm) and were required to remain on the rod for 1 minute. […] These tests were followed by MES (100 Hz, 0.5 second shock duration, 50 mA shock intensity, 0.9 ms impulse duration, Ugo Basile) applied through corneal electrodes. The presence of tonic convulsions was scored (tonic extension of hind paws with minimum angle to the body of 90°). The aim was to obtain ED50 s for all parameters scored (anticonvulsive activity and motor side effects) with use of the Litchfield Wilcoxon test for quantal dose responses. Division of the ED50 for side effects (ataxia or myorelaxation) by the ED50 for antagonism of electroshock convulsions was used as a therapeutic index (TI).\nas §1, with “Prusoff.” for “Prusoff. Binding values presented are means±SEM of 3-5 determinations (each performed in duplicate).”"}, "[6]": {"test": "Traction reflex test (myorelaxant action) in mice, therapeutic index versus MES", "format": "in vivo", "details": "ED50 for traction reflex impairment divided by ED50 for MES", "experimental": "as §2, §3"}, "NMDA receptor [7]": {"molecular_target": "NMDA receptor", "test": "[3H]-(+)-MK-801 binding to rat cortical membranes", "details": "read-out: MK-801 Ki; Table 9; Cheng-Prusoff with Kd for MK-801 of […]", "experimental": "Male Sprague-Dawley rats (200-250 g) were decapitated and their brains were removed rapidly. The cortex was dissected and homogenized in 20 volumes of ice-cold 0.32 M sucrose using a glass-Teflon homogenizer. The homogenate was centrifuged at 1000 ×g for 10 minutes. The pellet was discarded and the supernatant centrifuged at 20,000 ×g for 20 minutes. The resulting pellet was re-suspended in 20 volumes of distilled water and centrifuged for 20 minutes at 8000 ×g. Then the supernatant and the buffy coat were centrifuged three times (48,000 ×g for 20 minutes) in the presence of 50 mM Tris-HCl, pH 8.0. All centrifugation steps were carried out at 4° C. After resuspension in 5 volumes of 50 mM Tris-HCl, pH 8.0 the membrane suspension was frozen rapidly at -80° C. On the day of assay the membranes were thawed and washed four times by resuspension in 50 mM Tris-HCl, pH 8.0 and centrifugation at 48,000 ×g for 20 minutes. The final pellet was suspended in assay buffer. The amount of protein in the final membrane preparation was determined according to the method of Lowry with some modifications. The final protein concentration used for our studies was between 250-500 μg/ml.\nMembranes were re-suspended and incubated in 50 mM Tris-HCl, pH 8.0. […] Incubations were terminated using a Millipore filter system. The samples were rinsed three times with 2.5 ml ice cold assay buffer over glass fiber filters obtained from Schleicher & Schuell under a constant vacuum. Filtration was performed as rapidly as possible. Following separation and rinse, the filters were placed into scintillation liquid (5 ml; Ultima Gold) and radio activity retained on the filters was determined with a conventional liquid scintillation counter (Hewlett Packard, Liquid Scintillation Analyser).\nas §1"}, "[8]": {"details": "20 h, read-out: Glut. Tox. IC50"}, "[9]": {"details": "Table 8, mice, i.p., 95% confidence limits in parentheses"}, "[10]": {"details": "read-out: Patch Clamp IC50; Table 7; NMDA 200 μM with glycine 1 μM at -70 mV"}, "[11]": {"details": "read-out: Patch Clamp IC50; Table 9; NMDA-induced currents"}}, "note": "Counter-ions that a name gives are not always drawn. Like-named read-outs stand apart in the source and are kept apart here.", "data": [{"smiles": "C[C@]12N[C@H](Cc3ccccc31)c1ccccc12", "note": "[MK-801, (+)-5-methyl-10,11-dihydro-5H-dibenzocyclohepten-5,10-imine maleate, reference compound]", "values": [{"measurement": "side effects in humans", "setting": "[1]", "result": "some psychotropic side effects were apparent at therapeutic doses"}, {"measurement": "therapeutic efficacy in epilepsy", "setting": "[1]; initial clinical experience", "result": "poor"}, {"measurement": "IC50", "setting": "cortical neurones; [8]", "result": 0.012, "unit": "µM"}, {"measurement": "IC50", "setting": "cortical neurones; read-out: Glut Tox IC50", "result": 0.013, "unit": "µM"}, {"measurement": "ED50", "setting": "[2]", "result": 0.16, "unit": "mg/kg"}, {"measurement": "MES ED50", "setting": "[2]; [9]", "result": "0.16 (0.13-0.21) mg/kg"}, {"measurement": "IC50", "setting": "NMDA receptor [3]; [10]", "result": "[…]"}, {"measurement": "IC50", "setting": "NMDA receptor [3]; [11]", "result": "[…]"}, {"measurement": "Min Lethality", "setting": "[4]; i.p., minimal lethal dose", "result": "> 108", "unit": "mg/kg"}]}, {"smiles": "CC1(C)CC(C)(C)CC(C)(N2CCCC2)C1.Cl", "note": "[MRZ 2/705, N-(1,3,3,5,5-Pentamethylcyclohexyl) pyrrolidine hydrochloride]", "values": [{"measurement": "selectivity ratio at 0.5 h", "setting": "[5]", "result": 5.4}, {"measurement": "selectivity ratio at 0.5 h", "setting": "[6]; mouse, in vivo, ip, read-out: TI Tract", "result": 3.9}, {"measurement": "Min Lethality", "setting": "[4]; i.p., minimal lethal dose", "result": "> 50", "unit": "mg/kg"}, {"measurement": "Ki", "setting": "NMDA receptor [7]", "result": 7.14, "unit": "µM"}]}, {"smiles": "NC12CC3CC(CC(C3)C1)C2", "note": "[Amantadine, reference compound]", "values": [{"measurement": "side effects in humans", "setting": "[1]", "result": "rarely produce side effects at the therapeutic doses"}, {"measurement": "IC50", "setting": "cortical neurones; [8]", "result": 20.7, "unit": "µM"}, {"measurement": "IC50", "setting": "cortical neurones; read-out: Glut Tox IC50", "result": 36.9, "unit": "µM"}, {"measurement": "ED50", "setting": "[2]", "result": 184, "unit": "mg/kg"}, {"measurement": "MES ED50", "setting": "[2]; [9]", "result": "184.0 (122-279) mg/kg"}, {"measurement": "IC50", "setting": "NMDA receptor [3]; [10]", "result": 71, "unit": "µM"}, {"measurement": "IC50", "setting": "NMDA receptor [3]; [11]", "result": 80.8, "unit": "µM"}]}, {"smiles": "CC1(C)CC(C)(C)CC(C)(CCN)C1", "note": "[Mrz 2/662]", "values": [{"measurement": "IC50", "setting": "cortical neurones; Table 9, 100 μM glutamate, read-out: Glut Tox IC50", "result": 0.53, "unit": "µM"}, {"measurement": "ED50", "setting": "[2]; [9]", "result": 30.5, "unit": "mg/kg"}, {"measurement": "TI Tract", "setting": "[6]; 30 min", "result": 1.0}, {"measurement": "IC50", "setting": "NMDA receptor [3]; Table 9; NMDA-induced currents; read-out: Patch Clamp IC50", "result": 1.5, "unit": "µM"}, {"measurement": "Min Lethality", "setting": "[4]; mouse, in vivo, ip", "result": "> 40", "unit": "mg/kg"}, {"measurement": "Ki", "setting": "NMDA receptor [7]", "result": 3.44, "unit": "µM"}]}]}
